Test results published in patent US20240174679A1, “HETEROAROYL AMIDES AS LRRK2 INHIBITORS, PHARMACEUTICAL COMPOSITIONS, AND USES THEREOF” (MERCK SHARP & DOHME LLC, priority 2021, published 2024).

Target: GST tagged truncated human mutant G2019S LRRK2 (Homo sapiens (Human), UniProt Q5S007, G2019S)
Assay: LRRK2 Km ATP LanthaScreen Assay
Format: biochemical
Conditions: 134 μM ATP (Km ATP), LRRKtide substrate, negative log of mean IC50 (molar)
Method in brief: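 Truncated GST-tagged G2019S LRRK2 (1.25 nM enzyme solution) was preincubated with compound for 15 min at rt, then reacted for 90 min with fluorescein-LRRKtide and 134 μM ATP (Km) in Tris pH 8.5/MgCl2 buffer. After an EDTA stop, TR-FRET used a Tb anti-pERM antibody (520/495 nm ratio). IC50 came from a 4-parameter fit and is reported as pIC50, mean of several runs.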

GST tagged truncated human mutant G2019S LRRK2, sequence (Q5S007 970-2527 G2019S): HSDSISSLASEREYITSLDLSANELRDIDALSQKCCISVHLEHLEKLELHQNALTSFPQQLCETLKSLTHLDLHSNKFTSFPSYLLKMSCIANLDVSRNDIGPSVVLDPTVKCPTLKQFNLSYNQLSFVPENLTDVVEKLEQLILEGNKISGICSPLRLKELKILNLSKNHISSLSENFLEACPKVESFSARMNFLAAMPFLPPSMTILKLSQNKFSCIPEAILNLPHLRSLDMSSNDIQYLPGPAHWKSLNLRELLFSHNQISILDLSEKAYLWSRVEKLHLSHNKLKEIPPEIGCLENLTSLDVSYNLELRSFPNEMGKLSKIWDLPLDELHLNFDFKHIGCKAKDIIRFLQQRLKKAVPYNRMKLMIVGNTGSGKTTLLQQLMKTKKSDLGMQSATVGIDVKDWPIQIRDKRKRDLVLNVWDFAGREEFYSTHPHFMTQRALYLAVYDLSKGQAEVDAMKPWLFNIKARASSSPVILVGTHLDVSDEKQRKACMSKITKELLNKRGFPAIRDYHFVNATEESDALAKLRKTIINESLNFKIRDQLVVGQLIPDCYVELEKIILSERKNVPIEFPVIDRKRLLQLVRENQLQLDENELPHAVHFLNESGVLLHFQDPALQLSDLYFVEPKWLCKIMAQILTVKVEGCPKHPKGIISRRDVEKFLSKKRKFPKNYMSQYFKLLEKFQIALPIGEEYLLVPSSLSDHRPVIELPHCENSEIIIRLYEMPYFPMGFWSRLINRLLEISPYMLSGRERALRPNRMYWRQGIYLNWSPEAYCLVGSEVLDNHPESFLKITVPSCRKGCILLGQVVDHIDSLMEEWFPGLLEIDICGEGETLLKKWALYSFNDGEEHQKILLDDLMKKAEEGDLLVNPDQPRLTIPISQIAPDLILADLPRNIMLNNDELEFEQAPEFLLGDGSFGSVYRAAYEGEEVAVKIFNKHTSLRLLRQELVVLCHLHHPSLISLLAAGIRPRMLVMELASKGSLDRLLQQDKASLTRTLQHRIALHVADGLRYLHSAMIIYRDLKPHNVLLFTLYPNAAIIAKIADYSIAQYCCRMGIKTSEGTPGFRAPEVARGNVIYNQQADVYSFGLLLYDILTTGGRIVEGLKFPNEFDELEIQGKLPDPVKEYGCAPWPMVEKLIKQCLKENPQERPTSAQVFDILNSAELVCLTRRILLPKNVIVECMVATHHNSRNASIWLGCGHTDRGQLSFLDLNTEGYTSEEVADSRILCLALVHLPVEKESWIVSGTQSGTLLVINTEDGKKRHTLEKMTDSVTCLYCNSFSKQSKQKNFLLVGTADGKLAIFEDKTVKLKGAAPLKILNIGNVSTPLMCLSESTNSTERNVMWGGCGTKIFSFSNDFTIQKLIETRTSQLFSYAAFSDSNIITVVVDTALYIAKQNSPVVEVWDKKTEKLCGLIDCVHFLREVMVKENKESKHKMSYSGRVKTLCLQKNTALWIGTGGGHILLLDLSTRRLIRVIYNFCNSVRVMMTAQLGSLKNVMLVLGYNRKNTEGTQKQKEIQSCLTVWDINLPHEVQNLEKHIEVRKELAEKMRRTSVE

Point of comparison: `Cn1cc(-c2nc(C(=O)Nc3cnn(CC4CCC4)c3)cs2)cn1` [Example 12-1, N-(1-(Cyclobutylmethyl)-1H-pyrazol-4-yl)-2-(1-methyl-1H-pyrazol-4-yl)thiazole-4-carboxamide], “LRRK2 pIC50” value 7.74. Against it:
- O=C(Nc1cnn(C2CCC2)c1)c1csc(-c2cccnc2)n1 [Example 9-39, N-(1-cyclobutyl-1H-pyrazol-4-yl)-2-(pyridin-3-yl)thiazole-4-carboxamide] — lower, 7.06
- O=C(Nc1cnn(C2CC2)c1)c1csc(-c2ccn[nH]2)n1 [Example 9-40, N-(1-cyclopropyl-1H-pyrazol-4-yl)-2-(1H-pyrazol-5-yl)thiazole-4-carboxamide] — lower, 7.06
- N#CC1(c2cccc(C(=O)Nc3cnn(CC4CCC4)c3)n2)CC1 [Example 10-1, 6-(1-Cyanocyclopropyl)-N-(1-(cyclobutylmethyl)-1H-pyrazol-4-yl)picolinamide] — lower, 6.90
- O=C(Nc1cnn(C2CCC2)c1)c1csc(-n2ccnc2)n1 [Example 11-2, N-(1-cyclobutyl-1H-pyrazol-4-yl)-2-(1H-imidazol-1-yl)thiazole-4-carboxamide] — lower, 6.61
- Cn1cc(-c2nc(C(=O)Nc3cn(C4CCC4)nc3C3CC3)cs2)cn1 [Example 12-2, N-(1-cyclobutyl-3-cyclopropyl-1H-pyrazol-4-yl)-2-(1-methyl-1H-pyrazol-4-yl)-1,3-thiazole-4-carboxamide] — within 0.2 log units, 7.76
- Cn1cc(-c2nc(C(=O)Nc3cn(C4CC4)nc3C3CC3)cs2)cn1 [Example 12-3, N-(1,3-dicyclopropyl-1H-pyrazol-4-yl)-2-(1-methyl-1H-pyrazol-4-yl)-1,3-thiazole-4-carboxamide] — within 0.2 log units, 7.84
- CCn1cc(-c2nc(C(=O)Nc3cn(CC(F)(F)F)nc3OC)cs2)cn1 [Example 12-4, 2-(1-ethyl-1H-pyrazol-4-yl)-N-[3-methoxy-1-(2,2,2-trifluoroethyl)-1H-pyrazol-4-yl]-1,3-thiazole-4-carboxamide] — lower, 6.57
- Cc1nn(C2CCC2)cc1NC(=O)c1csc(-c2cnn(C)c2)n1 [Example 12-5, N-(1-cyclobutyl-3-methyl-1H-pyrazol-4-yl)-2-(1-methyl-1H-pyrazol-4-yl)-1,3-thiazole-4-carboxamide] — lower, 7.30
- COc1nn(CC(F)(F)F)cc1NC(=O)c1csc(-c2cnn(C)c2)n1 [Example 12-6, N-[3-methoxy-1-(2,2,2-trifluoroethyl)-1H-pyrazol-4-yl]-2-(1-methyl-1H-pyrazol-4-yl)-1,3-thiazole-4-carboxamide] — lower, 7.06
- COc1nn(CC(F)(F)F)cc1NC(=O)c1csc(-c2cnn(S(C)(=O)=O)c2)n1 [Example 13-1, N-(3-Methoxy-1-(2,2,2-trifluoroethyl)-1H-pyrazol-4-yl)-2-(1-(methylsulfonyl)-1H-pyrazol-4-yl)thiazole-4-carboxamide] — lower, 5.97

Same assay, conditions: 134 μM ATP (Km ATP), LRRKtide substrate, negative log of mean IC50 (molar), read-out: LRRK2 pIC50 (converted)

Work on `O=C(Nc1cnn(C2CCC2)c1)c1csc(-n2cccn2)n1` [Example 11-1, N-(1-Cyclobutyl-1H-pyrazol-4-yl)-2-(1H-pyrazol-1-yl)thiazole-4-carboxamide] yielded an IC50 of 0.1 µM.
